Laboratory results: US20060069132A1, “Azolecarboxamide herbicides” (priority 2004, published 2006)

Legend:
Surinam grass = experiment: Test E pre-/postemergence herbicide test; assay type: in vivo, Urochloa decumbens
How it was run: (§1)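 Postemergence treatment targeted plants at the 1- to 4-leaf stage (2–18 cm), alongside preemergence treatment of planted seed; both used a non-phytotoxic solvent mixture with surfactant. Visual ratings, 0 = no effect to 100 = complete control, were taken 12 to 14 days later.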

large crabgrass = experiment: Test E pre-/postemergence herbicide test; assay type: in vivo, Digitaria sanguinalis
How it was run: as §1

common ragweed = experiment: Test E pre-/postemergence herbicide test; assay type: in vivo, Ambrosia elatior
How it was run: as §1

guineagrass = experiment: Test E pre-/postemergence herbicide test; assay type: in vivo, Panicum maximum
How it was run: as §1

common purslane = experiment: Test E pre-/postemergence herbicide test; assay type: in vivo, Portulaca oleracea; settings: Preemergence
Text: (§2) Seeds of plant species selected from bipinnate beggarticks (Bidens bipinnata L.), hairy beggarticks (Bidens radiata Thuill.), bermudagrass (Cynodon dactylon (L.) Pers.), Surinam grass (Urochloa decumbens (Staph) R. D. Webster, previously named Brachiaria decumbens Stapf), large crabgrass (Digitaria sanguinalis (L.) Scop.), green foxtail (Setaria viridis (L.) P. Beauv.), goosegrass (Eleusine indica (L.) Gaertn.), johnsongrass (Sorghum halepense (L.) Pers.), kochia (Kochia scoparia (L.) Schrad.), pitted morningglory (Ipomoea lacunosa L.), purple nutsedge (Cyperus rotundus L.), common ragweed (Ambrosia elatior L.), mustard (Brassica nigra (L.) W. D. J. Koch), guineagrass (Panicum maximum Jacq.), dallisgrass (Paspalum dilatatum Poir.), barnyardgrass (Echinochloa crus-galli (L). P. Beauv.), southern sandbur (Cenchrus echinatus L.), common sowthistle (Sonchus oleraceous L.), prickly sida (Sida spinosa L.), Italian ryegrass (Lolium multiflorum Lam.), common purslane (Portulaca oleracea L.), broadleaf signalgrass (Brachiaria platyphylla (Griseb.) Nash), common groundsel (Senecio vulgaris L.), common chickweed (Stellaria media (L.) Vill/Cyr.), tropical spiderwort (Commelina benghalensis L.), annual bluegrass (Poa annua L.), downy bromegrass (Bromus tectorum L.), itchgrass (Rottboellia cochinchinensis (L.) L.f.), quackgrass (Elytrigia repens (L.) Nevski), Canada horseweed (Erigeron Canadensis L.), field bindweed (Convolvulus arvensis L.), spotted spurge (Euphorbia maculata L.), common mallow (Malva sylvestris (=s silvestris) L.), and Russian thistle (Salsola kali L. ssp. Ruthenica (Iljin) Soo) were planted and treated preemergence with test chemicals formulated in a non-phytotoxic solvent mixture which included a surfactant.
(§3) At the same time, plants selected from these weed species were treated with postemergence applications of some of the test chemicals formulated in the same manner. Plants ranged in height from 2 to 18 cm (1- to 4-leaf stage) for postemergence treatments. Treated plants and controls were maintained in a greenhouse for 12 to 14 days, after which time all species were compared to controls and visually evaluated. Plant response ratings, summarized in Table E, are based on a scale of 0 to 100 where 0 is no effect and 100 is complete control. A dash (-) response means no test result.

broadleaf signalgrass = experiment: Test E pre-/postemergence herbicide test; assay type: in vivo, Brachiaria platyphylla
How it was run: as §1

common groundsel = experiment: Test E pre-/postemergence herbicide test; assay type: in vivo, Senecio vulgaris
Text: as §2, §3

downy bromegrass = experiment: Test E pre-/postemergence herbicide test; assay type: in vivo, Bromus tectorum
How it was run: as §1

itchgrass = experiment: Test E pre-/postemergence herbicide test; assay type: in vivo, Rottboellia cochinchinensis
How it was run: as §1

canarygrass = experiment: Test C postemergence herbicide test; assay type: in vivo, Phalaris minor
How it was run: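 Visual rating, 0 (no effect) to 100 (complete control), vs. controls at 12–14 d in greenhouse. Postemergence: 1–4-leaf plants, 2–18 cm. Paddy: flooded, barnyardgrass at 2-leaf stage.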

[1] = Postemergence, 250 g ai/ha, scale 0 to 100
[2] = Preemergence, 62 g ai/ha, scale 0 to 100
[3] = Preemergence, 125 g ai/ha, scale 0 to 100
[4] = Preemergence, 250 g ai/ha, scale 0 (no effect) to 100 (complete control)
[5] = Preemergence, 500 g ai/ha, scale 0 (no effect) to 100 (complete control)
[6] = postemergence, 125 g ai/ha, scale 0 to 100
[7] = postemergence, 62 g ai/ha, scale 0 to 100
[8] = Preemergence, 125 g ai/ha, scale 0 (no effect) to 100 (complete control)
[9] = 250 g ai/ha, scale 0 (no effect) to 100 (complete control)
[10] = 500 g ai/ha, scale 0 (no effect) to 100 (complete control)
[11] = Postemergence, 500 g ai/ha, scale 0 to 100

CCNC(=O)c1ccc(F)c(NC(=O)c2cc(C(C)(C)C)nn2CC)c1 [Compound 2, 3-(1,1-dimethylethyl)-1-ethyl-N-[5-[(ethylamino)carbonyl]-2-fluorophenyl]-1H-pyrazole-5-carboxamide]
Plant response rating, Surinam Grass (Surinam grass; [1]): 100
Plant response rating, Surinam Grass (Surinam grass; [2]): 60
Plant response rating, Surinam Grass (Surinam grass; [3]): 80
Plant response rating, Surinam Grass (Surinam grass; [4]): 80
Plant response rating, Surinam Grass (Surinam grass; [5]): 90
Plant response rating, Surinam Grass (Surinam grass; [6]): 90
Plant response rating, Surinam Grass (Surinam grass; [7]): 75
Plant response rating, Crabgrass, Large (large crabgrass; [1]): 98
Plant response rating, Crabgrass, Large (large crabgrass; [2]): 70
Plant response rating, Crabgrass, Large (large crabgrass; [8]): 80
Plant response rating, Crabgrass, Large (large crabgrass; [4]): 100
Plant response rating, Crabgrass, Large (large crabgrass; [5]): 100
Plant response rating, Crabgrass, Large (large crabgrass; [6]): 95
Plant response rating, Crabgrass, Large (large crabgrass; [7]): 90
Plant response rating, Ragweed (common ragweed; [2]): 20
Plant response rating, Ragweed (common ragweed; [8]): 60
Plant response rating, Ragweed (common ragweed; [4]): 70
Plant response rating, Ragweed (common ragweed; [5]): 85
Plant response rating, Ragweed (common ragweed; [6]): 80
Plant response rating, Ragweed (common ragweed; [7]): 60
Plant response rating, Guineagrass (guineagrass; [1]): 95
Plant response rating, Guineagrass (guineagrass; [2]): 70
Plant response rating, Guineagrass (guineagrass; [8]): 80
Plant response rating, Guineagrass (guineagrass; [4]): 100
Plant response rating, Guineagrass (guineagrass; [5]): 100
Plant response rating, Guineagrass (guineagrass; [6]): 75
Plant response rating, Guineagrass (guineagrass; [7]): 30
Plant response rating, Purslane (common purslane; 125 g ai/ha, scale 0 (no effect) to 100 (complete control)): 100
Plant response rating, Purslane (common purslane; [9]): 100
Plant response rating, Purslane (common purslane; [10]): 100
Plant response rating, Signalgrass (broadleaf signalgrass; [1]): 85
Plant response rating, Signalgrass (broadleaf signalgrass; [2]): 50
Plant response rating, Signalgrass (broadleaf signalgrass; [8]): 70
Plant response rating, Signalgrass (broadleaf signalgrass; [4]): 75
Plant response rating, Signalgrass (broadleaf signalgrass; [5]): 90
Plant response rating, Signalgrass (broadleaf signalgrass; [6]): 80
Plant response rating, Signalgrass (broadleaf signalgrass; [7]): 30
Plant response rating, Groundsel (common groundsel; [1]): 80
Plant response rating, Groundsel (common groundsel; [2]): 60
Plant response rating, Groundsel (common groundsel; [8]): 70
Plant response rating, Groundsel (common groundsel; [4]): 100
Plant response rating, Groundsel (common groundsel; [5]): 100
Plant response rating, Bromegrass, Downy (downy bromegrass; [1]): 98
Plant response rating, Bromegrass, Downy (downy bromegrass; [2]): 50
Plant response rating, Bromegrass, Downy (downy bromegrass; [8]): 90
Plant response rating, Bromegrass, Downy (downy bromegrass; [4]): 90
Plant response rating, Bromegrass, Downy (downy bromegrass; [5]): 90
Plant response rating, Bromegrass, Downy (downy bromegrass; [6]): 75
Plant response rating, Bromegrass, Downy (downy bromegrass; [7]): 65
Plant response rating, Itchgrass (itchgrass; [1]): 90
Plant response rating, Itchgrass (itchgrass; [2]): 60
Plant response rating, Itchgrass (itchgrass; [8]): 70
Plant response rating, Itchgrass (itchgrass; [4]): 90
Plant response rating, Itchgrass (itchgrass; [5]): 95
Plant response rating, Itchgrass (itchgrass; [6]): 90
Plant response rating, Itchgrass (itchgrass; [7]): 70

CCn1nc(C(C)(C)C)cc1C(=O)Nc1cccc(C(N)=O)n1 [Compound 162, 6-[[[3-(1,1-dimethylethyl)-1-ethyl-1H-pyrazol-5-yl]carbonyl]amino]-2-pyridinecarboxamide]
Plant response rating, Surinam Grass (Surinam grass; [11]): 100
Plant response rating, Surinam Grass (Surinam grass; [1]): 98
Plant response rating, Surinam Grass (Surinam grass; [2]): 60
Plant response rating, Surinam Grass (Surinam grass; [3]): 75
Plant response rating, Surinam Grass (Surinam grass; [5]): 100
Plant response rating, Surinam Grass (Surinam grass; [6]): 90
Plant response rating, Surinam Grass (Surinam grass; [7]): 50
Plant response rating, Crabgrass, Large (large crabgrass; [11]): 95
Plant response rating, Crabgrass, Large (large crabgrass; [1]): 90
Plant response rating, Crabgrass, Large (large crabgrass; [2]): 50
Plant response rating, Crabgrass, Large (large crabgrass; [3]): 90
Plant response rating, Crabgrass, Large (large crabgrass; [4]): 95
Plant response rating, Crabgrass, Large (large crabgrass; [5]): 100
Plant response rating, Crabgrass, Large (large crabgrass; [6]): 50
Plant response rating, Crabgrass, Large (large crabgrass; [7]): 30
Plant response rating, Ragweed (common ragweed; [11]): 90
Plant response rating, Ragweed (common ragweed; [1]): 80
Plant response rating, Ragweed (common ragweed; [2]): 20
Plant response rating, Ragweed (common ragweed; [3]): 60
Plant response rating, Ragweed (common ragweed; [4]): 75
Plant response rating, Ragweed (common ragweed; [5]): 95
Plant response rating, Ragweed (common ragweed; [6]): 75
Plant response rating, Ragweed (common ragweed; [7]): 50
Plant response rating, Guineagrass (guineagrass; [11]): 98
Plant response rating, Guineagrass (guineagrass; [1]): 90
Plant response rating, Guineagrass (guineagrass; [2]): 50
Plant response rating, Guineagrass (guineagrass; [3]): 100
Plant response rating, Guineagrass (guineagrass; [4]): 100
Plant response rating, Guineagrass (guineagrass; [5]): 100
Plant response rating, Guineagrass (guineagrass; [6]): 75
Plant response rating, Guineagrass (guineagrass; [7]): 35
Plant response rating, Purslane (common purslane; 62 g ai/ha, scale 0 to 100): 100
Plant response rating, Purslane (common purslane; 125 g ai/ha, scale 0 to 100): 100
Plant response rating, Purslane (common purslane; [9]): 100
Plant response rating, Purslane (common purslane; [10]): 100
Plant response rating, Signalgrass (broadleaf signalgrass; [11]): 90
Plant response rating, Signalgrass (broadleaf signalgrass; [1]): 80
Plant response rating, Signalgrass (broadleaf signalgrass; [3]): 70
Plant response rating, Signalgrass (broadleaf signalgrass; [4]): 100
Plant response rating, Signalgrass (broadleaf signalgrass; [5]): 100
Plant response rating, Signalgrass (broadleaf signalgrass; [6]): 70
Plant response rating, Signalgrass (broadleaf signalgrass; [7]): 30
Plant response rating, Groundsel (common groundsel; [11]): 100
Plant response rating, Groundsel (common groundsel; [1]): 80
Plant response rating, Groundsel (common groundsel; [2]): 10
Plant response rating, Groundsel (common groundsel; [3]): 40
Plant response rating, Groundsel (common groundsel; [4]): 80
Plant response rating, Groundsel (common groundsel; [5]): 100
Plant response rating, Groundsel (common groundsel; [6]): 30
Plant response rating, Groundsel (common groundsel; [7]): 20
Plant response rating, Bromegrass, Downy (downy bromegrass; [11]): 100
Plant response rating, Bromegrass, Downy (downy bromegrass; [1]): 98
Plant response rating, Bromegrass, Downy (downy bromegrass; [2]): 40
Plant response rating, Bromegrass, Downy (downy bromegrass; [3]): 80
Plant response rating, Bromegrass, Downy (downy bromegrass; [4]): 90
Plant response rating, Bromegrass, Downy (downy bromegrass; [5]): 100
Plant response rating, Bromegrass, Downy (downy bromegrass; [6]): 95
Plant response rating, Bromegrass, Downy (downy bromegrass; [7]): 50
Plant response rating, Itchgrass (itchgrass; [11]): 95
Plant response rating, Itchgrass (itchgrass; [1]): 95
Plant response rating, Itchgrass (itchgrass; [2]): 40
Plant response rating, Itchgrass (itchgrass; [3]): 95
Plant response rating, Itchgrass (itchgrass; [4]): 95
Plant response rating, Itchgrass (itchgrass; [5]): 100
Plant response rating, Itchgrass (itchgrass; [6]): 85
Plant response rating, Itchgrass (itchgrass; [7]): 75

CCNC(=O)c1cccc(NC(=O)c2nn(C(C)(C)C)nc2C)c1 [Compound 392]
Plant response rating, Canarygrass (canarygrass; Postemergence, 250 g ai/ha, scale 0 to 100, 0 no effect, 100 complete control): 50
Plant response rating, Canarygrass (canarygrass; Postemergence, 500 g ai/ha, scale 0 to 100, 0 no effect, 100 complete control): 65
Plant response rating, Canarygrass (canarygrass; [6]): 45
Plant response rating, Canarygrass (canarygrass; [7]): 40
Plant response rating, Surinam Grass (Surinam grass; [3]): 60
Plant response rating, Surinam Grass (Surinam grass; [5]): 95
Plant response rating, Crabgrass, Large (large crabgrass; [2]): 75
Plant response rating, Crabgrass, Large (large crabgrass; [3]): 95
Plant response rating, Crabgrass, Large (large crabgrass; [4]): 95
Plant response rating, Crabgrass, Large (large crabgrass; [5]): 95
Plant response rating, Ragweed (common ragweed; [2]): 30
Plant response rating, Ragweed (common ragweed; [3]): 30
Plant response rating, Ragweed (common ragweed; [4]): 70
Plant response rating, Ragweed (common ragweed; [5]): 100
Plant response rating, Guineagrass (guineagrass; [2]): 75
Plant response rating, Guineagrass (guineagrass; [3]): 80
Plant response rating, Guineagrass (guineagrass; [4]): 95
Plant response rating, Guineagrass (guineagrass; [5]): 100
Plant response rating, Purslane (common purslane; 125 g ai/ha, scale 0 to 100): 90
Plant response rating, Purslane (common purslane; [9]): 100
Plant response rating, Purslane (common purslane; [10]): 100
Plant response rating, Signalgrass (broadleaf signalgrass; [2]): 10
Plant response rating, Signalgrass (broadleaf signalgrass; [3]): 30
Plant response rating, Signalgrass (broadleaf signalgrass; [4]): 70
Plant response rating, Signalgrass (broadleaf signalgrass; [5]): 85
Plant response rating, Groundsel (common groundsel; [2]): 10
Plant response rating, Groundsel (common groundsel; [3]): 60
Plant response rating, Groundsel (common groundsel; [4]): 60
Plant response rating, Groundsel (common groundsel; [5]): 95
Plant response rating, Bromegrass, Downy (downy bromegrass; [2]): 10
Plant response rating, Bromegrass, Downy (downy bromegrass; [3]): 20
Plant response rating, Bromegrass, Downy (downy bromegrass; [4]): 30
Plant response rating, Bromegrass, Downy (downy bromegrass; [5]): 30
Plant response rating, Itchgrass (itchgrass; [2]): 50
Plant response rating, Itchgrass (itchgrass; [3]): 85
Plant response rating, Itchgrass (itchgrass; [4]): 85
Plant response rating, Itchgrass (itchgrass; [5]): 90
